The values that follow come from patent publication US10301306B2, “Substituted dihydro-1H-pyrrolo[3,2-c]pyridin-4(5H)-ones as RIPK3 inhibitors” (BRISTOL-MYERS SQUIBB COMPANY, priority 2014, dated 2019).

Where only a bound is given, the exact number is not on record here.

For this experiment, the target named is RIPK3 (Homo sapiens (Human), UniProt Q9Y572). As to the kind of experiment: RIPK3 HTRF Kinase Assay. To be noted: RIPK3 1 nM; HTRF probe 23 nM; 60 min at room temperature; read-out: IC50 for Inhibition of RIPK3. Format: binding.
Sequence of RIPK3 (Q9Y572 whole entry, species assumed): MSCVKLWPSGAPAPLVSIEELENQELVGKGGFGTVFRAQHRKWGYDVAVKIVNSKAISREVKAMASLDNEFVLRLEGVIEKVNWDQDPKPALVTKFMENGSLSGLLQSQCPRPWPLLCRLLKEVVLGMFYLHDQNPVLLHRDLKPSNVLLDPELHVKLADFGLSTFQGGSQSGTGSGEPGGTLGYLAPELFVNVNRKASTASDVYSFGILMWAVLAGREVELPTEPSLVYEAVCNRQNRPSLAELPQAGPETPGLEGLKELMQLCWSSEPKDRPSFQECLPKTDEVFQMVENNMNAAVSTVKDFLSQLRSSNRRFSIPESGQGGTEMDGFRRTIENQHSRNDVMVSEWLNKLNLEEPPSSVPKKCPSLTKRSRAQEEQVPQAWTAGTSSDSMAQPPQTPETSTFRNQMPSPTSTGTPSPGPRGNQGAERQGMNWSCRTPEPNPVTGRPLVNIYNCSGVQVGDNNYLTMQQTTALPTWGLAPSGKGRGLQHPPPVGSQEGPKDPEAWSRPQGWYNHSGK
`N#Cc1cc(F)ccc1Cn1c2c(c(-c3ccc(Cl)s3)c1-c1ccncc1)C(=O)NCC2` [Example 130]: the concentration for half-maximal inhibition (IC50) is less than 30 nM.

Consider `COc1ccncc1-c1c2c(n(Cc3ccc(F)cc3C#N)c1-c1ccncc1)CCNC2=O` [Example 131], for which the IC50 lay within 100 to 15000 nM.

As for `N#Cc1cc(F)ccc1Cn1c2c(c(-c3cncc4ccccc34)c1-c1ccncc1)C(=O)NCC2` [Example 132], the IC50 lay within 100 to 15000 nM.

Turning to `N#Cc1cc(F)ccc1Cn1c2c(c(-c3cccc(S(N)(=O)=O)c3)c1-c1ccncc1)C(=O)NCC2` [Example 133], the IC50 is 100 to 15000 nM.

`N#Cc1cc(F)ccc1Cn1c2c(c(-c3cccc(CO)c3)c1-c1ccncc1)C(=O)NCC2` [Example 134]: the IC50 was less than 30 nM. Under `N#Cc1cc(F)ccc1Cn1c2c(c(-c3ccc(OCc4ccccc4)cc3)c1-c1ccncc1)C(=O)NCC2` [Example 135] stands 100 to 15000 nM; under `N#Cc1cc(F)ccc1Cn1c2c(c(-c3ccc(Cl)c(Cl)c3)c1-c1ccncc1)C(=O)NCC2` [Example 136], less than 30 nM; under `N#Cc1cc(F)ccc1Cn1c2c(c(-c3cc(Cl)cc(Cl)c3)c1-c1ccncc1)C(=O)NCC2` [Example 138], less than 30 nM.

Turning to `N#Cc1cccc(-c2c3c(n(Cc4ccc(F)cc4C#N)c2-c2ccncc2)CCNC3=O)c1` [Example 139], the IC50 lay in the range of 31 to 100 nM. Next, `COc1cc(-c2c3c(n(Cc4ccc(F)cc4C#N)c2-c2ccncc2)CCNC3=O)ccn1` [Example 140]: less than 30 nM; `N#Cc1cc(F)ccc1Cn1c2c(c(-c3ccoc3)c1-c1ccncc1)C(=O)NCC2` [Example 141]: less than 30 nM. Under `Cc1csc(-c2c3c(n(Cc4ccc(F)cc4C#N)c2-c2ccncc2)CCNC3=O)c1` [Example 142] stands less than 30 nM; under `Cc1cscc1-c1c2c(n(Cc3ccc(F)cc3C#N)c1-c1ccncc1)CCNC2=O` [Example 143], 100 to 15000 nM; under `N#Cc1cc(F)ccc1Cn1c2c(c(/C=C/c3ccccc3)c1-c1ccncc1)C(=O)NCC2` [Example 145], 31 to 100 nM.

For `O=C1NCCc2c1c(-c1ccc(F)cc1)c(-c1ccnc(NCCO)c1)n2Cc1ccc(C(F)(F)F)cc1F` [Example 146], the IC50 was in the range of 31 to 100 nM. In the case of `COCCNc1cc(-c2c(-c3ccc(F)cc3)c3c(n2Cc2ccc(C(F)(F)F)cc2F)CCNC3=O)ccn1` [Example 147], the IC50 fell in the range of 100 to 15000 nM. Next, `CCC(=O)Nc1cc(-c2c(-c3ccc(F)cc3)c3c(n2Cc2ccc(C(F)(F)F)cc2F)CCNC3=O)ccn1` [Example 149]: 31 to 100 nM; `COCC(=O)Nc1cc(-c2c(-c3ccc(F)cc3)c3c(n2Cc2ccc(C(F)(F)F)cc2F)CCNC3=O)ccn1` [Example 150]: 31 to 100 nM.

For `CC1(C)CNC(=O)c2c(-c3ccc(F)cc3)c(-c3ccncc3)n(CC3CCOCC3)c21` [Example 152, 3-(4-Fluorophenyl)-7,7-dimethyl-2-(pyridin-4-yl)-1-((tetrahydro-2H-pyran-4-yl)methyl)-6,7-dihydro-1H-pyrrolo[3,2-c]pyridin-4(5H)-one], the IC50 was in the range of 100 to 15000 nM. As for `CC1(C)CNC(=O)c2c1[nH]c(-c1ccncc1)c2-c1ccc(F)cc1` [Example 153, 3-(4-Fluorophenyl)-7,7-dimethyl-2-(pyridin-4-yl)-6,7-dihydro-1H-pyrrolo[3,2-c]pyridin-4(5H)-one], the IC50 was less than 30 nM. Under `Cn1c(-c2ccncc2)c(-c2ccc(F)cc2)c2c1C(C)(C)CNC2=O` [Example 154, 3-(4-Fluorophenyl)-1,7,7-trimethyl-2-(pyridin-4-yl)-6,7-dihydro-1H-pyrrolo[3,2-c]pyridin-4(5H)-one] stands 100 to 15000 nM; under `O=c1[nH]ccc2c1c(-c1ccc(F)cc1)c(-c1ccnc(Cl)c1)n2Cc1ccc(C(F)(F)F)cc1F` [Example 155, 2-(2-Chloropyridin-4-yl)-1-(2-fluoro-4-(trifluoromethyl)benzyl)-3-(4-fluorophenyl)-1H-pyrrolo[3,2-c]pyridin-4(5H)-one], 100 to 15000 nM; under `CCC(=O)Nc1cc(-c2c(-c3ccc(F)cc3)c3c(=O)[nH]ccc3n2Cc2ccc(C(F)(F)F)cc2F)ccn1` [Example 156, N-(4-(1-(2-Fluoro-4-(trifluoromethyl)benzyl)-3-(4-fluorophenyl)-4-oxo-4,5-dihydro-1H-pyrrolo[3,2-c]pyridin-2-yl)pyridin-2-yl)propionamide], less than 30 nM.

Take `O=c1[nH]ccc2c1c(-c1ccc(F)cc1)c(-c1ccncc1)n2Cc1ccc(C(F)(F)F)cc1F` [Example 157, 1-(2-Fluoro-4-(trifluoromethyl)benzyl)-3-(4-fluorophenyl)-2-(pyridin-4-yl)-1H-pyrrolo[3,2-c]pyridin-4(5H)-one]: the IC50 was less than 30 nM. Under `Cc1ccc(S(=O)(=O)n2c3c(c(-c4ccc(F)cc4)c2-c2ccncc2)C(=O)NCC3)cc1` [Example 162, 3-(4-Fluorophenyl)-2-(pyridin-4-yl)-1-tosyl-6,7-dihydro-1H-pyrrolo[3,2-c]pyridin-4(5H)-one] stands 100 to 15000 nM. Under `CC(C)(C)OC(=O)Nc1cccc(-c2c3c(n(Cc4ccc(Cl)cc4F)c2-c2ccncc2)CCNC3=O)c1` [Example 163] stands 31 to 100 nM. Next, `Cc1ccc(-c2c3c(n(Cc4ccc(Cl)cc4F)c2-c2ccncc2)CCNC3=O)s1` [Example 164]: less than 30 nM; `Cn1cc(-c2c3c(n(Cc4ccc(Cl)cc4F)c2-c2ccncc2)CCNC3=O)cn1` [Example 165]: 100 to 15000 nM; `O=C1NCCc2c1c(-c1ccncc1F)c(-c1ccncc1)n2Cc1ccc(Cl)cc1F` [Example 166]: 100 to 15000 nM.

For the compound `COC(=O)c1cccc(-c2c3c(n(Cc4ccc(Cl)cc4F)c2-c2ccncc2)CCNC3=O)c1` [Example 167], the IC50 fell in the range of 100 to 15000 nM. Next, `Cc1cc(-c2c3c(n(Cc4ccc(Cl)cc4F)c2-c2ccncc2)CCNC3=O)ccn1` [Example 168]: 100 to 15000 nM.

`Nc1cccc(-c2c3c(n(Cc4ccc(Cl)cc4F)c2-c2ccncc2)CCNC3=O)c1` [Example 169]: the IC50 was in the range of 100 to 15000 nM. Next, `CCCC(=O)Nc1cccc(-c2c3c(n(Cc4ccc(Cl)cc4F)c2-c2ccncc2)CCNC3=O)c1` [Example 170]: 100 to 15000 nM; `Cc1cc(Cn2c3c(c(-c4cccc(NC(=O)OC(C)(C)C)c4)c2-c2ccncc2)C(=O)NCC3)n(C)n1` [Example 171]: 31 to 100 nM; `COC(=O)c1cccc(-c2c3c(n(Cc4cc(C)nn4C)c2-c2ccncc2)CCNC3=O)c1` [Example 172]: 100 to 15000 nM. Under `Cc1cc(Cn2c3c(c(-c4cccc(-c5c(C)noc5C)c4)c2-c2ccncc2)C(=O)NCC3)n(C)n1` [Example 173] stands 100 to 15000 nM; under `Cc1cc(Cn2c3c(c(-c4cccc(N)c4)c2-c2ccncc2)C(=O)NCC3)n(C)n1` [Example 174], 100 to 15000 nM; under `Cc1cc(Cn2c3c(c(-c4cccc(NC(=O)Cc5ccccc5)c4)c2-c2ccncc2)C(=O)NCC3)n(C)n1` [Example 175], 100 to 15000 nM. Under `Cc1cc(Cn2c3c(c(-c4cccc(NC(=O)c5ccccc5)c4)c2-c2ccncc2)C(=O)NCC3)n(C)n1` [Example 176] stands 100 to 15000 nM. For the compound `Cc1cc(Cn2c3c(c(-c4cccc(NC(=O)C5CC5)c4)c2-c2ccncc2)C(=O)NCC3)n(C)n1` [Example 177], the IC50 was in the range of 100 to 15000 nM.

Turning to `Cc1cc(Cn2c3c(c(-c4cccc(NC=O)c4)c2-c2ccncc2)C(=O)NCC3)n(C)n1` [Example 178], the IC50 was 100 to 15000 nM.
